Source: US9278962B2 (Cytokinetics, Inc., priority 2011, dated 2016)

Tested on: rabbit skeletal myofibrils (approximately 90% fast fibers)
Assay: Activation of fast skeletal myofibrils (PUMA coupled-enzyme ATPase assay, AC1.4)
Type: biochemical
Conditions: concentration at which the compound increased enzymatic activity by 40%, calcium at pCa25

Structure (SMILES)	Mean AC1.4 (Table 2)	also measured
COc1cccc(Cc2nsc(NCC(C)(C)c3ccc(F)cc3)n2)c1 [[2-(4-fluorophenyl)-2-methylpropyl]{3-[(3-methoxyphenyl)methyl](1,2,4-thiadiazol-5-yl)}amine]	A (A=<1 uM)	–
CC(C)(CNc1nc(-c2ccccc2CO)ns1)c1ccc(F)cc1 [[2-(5-{[2-(4-fluorophenyl)-2-methylpropyl]amino}-1,2,4-thiadiazol-3-yl)phenyl]methan-1-ol]	B (B=1-10 uM)	–
COc1cccc(C2(CNc3nc4ccc(C#N)cc4s3)CCC2)n1 [2-((1-(6-methoxypyridin-2-yl)cyclobutyl)methylamino)benzo[d] thiazole-6-carbonitrile]	–	Mean AC1.4 (Table 4): B (B=1-10 uM)
C=Cc1ccc(F)c(-c2nnc(NC[C@]3(c4ncccc4F)C[C@H](F)C3)s2)c1 [N-((3-fluoro-1-(3-fluoropyridin-2-yl)cyclobutyl)methyl)-5-(2-fluoro-5-vinylphenyl)-1,3,4-thiadiazol-2-amine]	–	Mean AC1.4 (Table 3): A (A=<1 uM)
CC(C)(CNc1nc(CCC(=O)NCCO)ns1)c1ccc(F)cc1 [3-(5-{[2-(4-fluorophenyl)-2-methylpropyl]amino}(1,2,4-thiadiazol-3-yl))-N-(2-hydroxyethyl)propanamide]	C (C=10-20 uM)	–
COc1ccc2nc(NCC(C)(C)c3ccc(F)cc3)sc2c1 [N-(2-(4-fluorophenyl)-2-methylpropyl)-6-methoxybenzo[d]thiazol-2-amine]	–	Mean AC1.4 (Table 4): A (A=<1 uM)
COc1cccc(Cc2nsc(N(C)CC(C)(C)c3ccc(F)cc3)n2)c1 [[2-(4-fluorophenyl)-2-methylpropyl]{3-[(3-methoxyphenyl)methyl](1,2,4-thiadiazol-5-yl)}methylamine]	D (D=>20 uM)	–
CC(C)(CNc1nc(CCN2CC[C@H](O)C2)ns1)c1ccc(F)cc1 [(3S)-1-[2-(5-{[2-(4-fluorophenyl)-2-methylpropyl]amino}(1,2,4-thiadiazol-3-yl))ethyl]pyrrolidin-3-ol]	C (C=10-20 uM)	–
Cn1nccc1-c1nnc(NCC2(c3ncccc3F)CCC2)s1 [N-((1-(3-fluoropyridin-2-yl)cyclobutyl)methyl)-5-(1-methyl-1H-pyrazol-5-yl)-1,3,4-thiadiazol-2-amine]	–	Mean AC1.4 (Table 3): D (D=>20 uM)
COc1cccc(Cc2nsc(NCC(C)c3ccc(Cl)cc3)n2)c1 (stereo not drawn) [[2-(4-chlorophenyl)propyl]{3-[(3-methoxyphenyl)methyl](1,2,4-thiadiazol-5-yl)}amine]	A (A=<1 uM)	–
Fc1ccc(Cc2nsc(NCCc3ccccc3)n2)cc1 [{3-[(4-fluorophenyl)methyl](1,2,4-thiadiazol-5-yl)}(2-phenylethyl)amine]	D (D=>20 uM)	–
COc1ccc(C2(CNc3nc4ccc(C#N)cc4s3)CCC2)nc1 [2-((1-(5-methoxypyridin-2-yl)cyclobutyl)methylamino)benzo[d] thiazole-6-carbonitrile]	–	Mean AC1.4 (Table 4): D (D=>20 uM)
Cc1cc(Br)sc1-c1nnc(NC[C@]2(c3ncccc3F)C[C@H](F)C2)s1 [5-(5-bromo-3-methylthiophen-2-yl)-N-((3-fluoro-1-(3-fluoropyridin-2-yl)cyclobutyl)methyl)-1,3,4-thiadiazol-2-amine]	–	Mean AC1.4 (Table 3): B (B=1-10 uM)
Cc1nsc(NC(=O)C(C)(C)c2ccc(F)cc2)n1 [2-(4-fluorophenyl)-2-methyl-N-(3-methyl(1,2,4-thiadiazol-5-yl))propanamide]	D (D=>20 uM)	–
CC(C)(CNc1nc(Cl)ns1)c1ccc(F)cc1 [3-Chloro-N-(2-(4-fluorophenyl)-2-methylpropyl)-1,2,4-thiadiazol-5-amine]	B (B=1-10 uM)	–
N#Cc1ccc(-c2nnc(NCC3(c4ncccc4F)CCC3)s2)cc1 [4-(5-((1-(3-fluoropyridin-2-yl)cyclobutyl)methylamino)-1,3,4-thiadiazol-2-yl)benzonitrile]	–	Mean AC1.4 (Table 3): D (D=>20 uM)
Cc1cc(NC(=O)C2(c3ncccc3F)CCC2)nn1-c1ccccc1 [1-(3-fluoropyridin-2-yl)-N-(5-methyl-1-phenyl-1H-pyrazol-3-yl)cyclobutanecarboxamide]	–	Mean AC1.4 (Table 5): D (D=>20 uM)
CN(CCO)Cc1nsc(NCC(C)(C)c2ccc(F)cc2)n1 [2-{[(5-{[2-(4-fluorophenyl)-2-methylpropyl]amino}(1,2,4-thiadiazol-3-yl))methyl]methylamino}ethan-1-ol]	D (D=>20 uM)	–
COc1cccc(Cc2nsc(NCCc3ccc(F)cc3)n2)c1 [[2-(4-fluorophenyl)ethyl]{3-[(3-methoxyphenyl)methyl](1,2,4-thiadiazol-5-yl)}amine]	B (B=1-10 uM)	–
CC(=O)NCc1nsc(NCC(C)(C)c2ccc(F)cc2)n1 [N-[(5-{[2-(4-fluorophenyl)-2-methylpropyl]amino}-1,2,4-thiadiazol-3-yl)methyl]acetamide]	C (C=10-20 uM)	–
CNC(=O)c1ccc(-c2nsc(NCC(C)(C)c3ccc(F)cc3)n2)cc1 [[4-(5-{[2-(4-fluorophenyl)-2-methylpropyl]amino}(1,2,4-thiadiazol-3-yl))phenyl]-N-methylcarboxamide]	A (A=<1 uM)	–

Structure (SMILES)	Mean AC1.4 (Table 2)	also measured
COC(=O)c1ccc(F)c(-c2nnc(NC[C@]3(c4ncccc4F)C[C@H](F)C3)s2)c1 [methyl 4-fluoro-3-(5-((3-fluoro-1-(3-fluoropyridin-2-yl)cyclobutyl)methylamino)-1,3,4-thiadiazol-2-yl)benzoate]	–	Mean AC1.4 (Table 3): B (B=1-10 uM)
CNC(=O)c1ccc(-c2nsc(NCC(C)(C)c3ccc(F)cc3)n2)cn1 [[5-(5-{[2-(4-fluorophenyl)-2-methylpropyl]amino}(1,2,4-thiadiazol-3-yl))(2-pyridyl)]-N-methylcarboxamide]	B (B=1-10 uM)	–
NC(=O)c1cccc(-c2nsc(NCCc3ccc(F)cc3)n2)c1 [3-(5-{[2-(4-fluorophenyl)ethyl]amino}-1,2,4-thiadiazol-3-yl)benzamide]	B (B=1-10 uM)	–
COc1cccc(Cc2nsc(NCc3ccc(Cl)cc3)n2)c1 [[(4-chlorophenyl)methyl]{3-[(3-methoxyphenyl)methyl](1,2,4-thiadiazol-5-yl)}amine]	D (D=>20 uM)	–
Fc1cccnc1[C@]1(CNc2nnc(-c3cc(Br)ccc3Cl)s2)C[C@@H](F)C1 [5-(5-bromo-2-chlorophenyl)-N-(((trans)-3-fluoro-1-(3-fluoropyridin-2-yl)cyclobutyl)methyl)-1,3,4-thiadiazol-2-amine]	–	Mean AC1.4 (Table 3): A (A=<1 uM)
Fc1cccnc1C1(CNc2nnc(-c3cscn3)s2)CCC1 [N-((1-(3-fluoropyridin-2-yl)cyclobutyl)methyl)-5-(thiazol-4-yl)-1,3,4-thiadiazol-2-amine]	–	Mean AC1.4 (Table 3): B (B=1-10 uM)
Nc1ccc(CCNc2nc(Cc3ccc(F)cc3)ns2)cc1 [[2-(4-aminophenyl)ethyl]{3-[(4-fluorophenyl)methyl](1,2,4-thiadiazol-5-yl)}amine]	D (D=>20 uM)	–
Fc1ccc(Br)cc1-c1nnc(NC2(c3ncccc3F)CCC2)[nH]1 [5-(5-bromo-2-fluorophenyl)-N-(1-(3-fluoropyridin-2-yl)cyclobutyl)-4H-1,2,4-triazol-3-amine]	–	Mean AC1.4 (Table 5): D (D=>20 uM)
CC(C)(CNc1nc(CCC(=O)N2CCCC(O)C2)ns1)c1ccc(F)cc1 (stereo not drawn) [3-(5-{[2-(4-fluorophenyl)-2-methylpropyl]amino}(1,2,4-thiadiazol-3-yl))-1-(3-hydroxypiperidyl)propan-1-one]	D (D=>20 uM)	–
Cc1ccsc1-c1nnc(NC[C@]2(c3ncccc3F)C[C@@H](F)C2)s1 [N-(((cis)-3-fluoro-1-(3-fluoropyridin-2-yl)cyclobutyl)methyl)-5-(3-methylthiophen-2-yl)-1,3,4-thiadiazol-2-amine]	–	Mean AC1.4 (Table 3): B (B=1-10 uM)
Cc1ccc(Cc2nsc(NCCc3ccccc3Cl)n2)cc1 [[2-(2-chlorophenyl)ethyl]{3-[(4-methylphenyl)methyl](1,2,4-thiadiazol-5-yl)}amine]	D (D=>20 uM)	–
Fc1ccc(Cc2nsc(NCCc3ccc(Cl)cc3)n2)cc1 [[2-(4-chlorophenyl)ethyl]{3-[(4-fluorophenyl)methyl](1,2,4-thiadiazol-5-yl)}amine]	B (B=1-10 uM)	–
Fc1cccnc1[C@]1(CNc2nnc(-c3ccccn3)s2)C[C@@H](F)C1 [N-((3-fluoro-1-(3-fluoropyridin-2-yl)cyclobutyl)methyl)-5-(pyridin-2-yl)-1,3,4-thiadiazol-2-amine]	–	Mean AC1.4 (Table 3): B (B=1-10 uM)
COc1cccc(Cc2nsc(NC[C@H](C)c3ccc(F)cc3)n2)c1 [[(2R)-2-(4-fluorophenyl)propyl]{3-[(3-methoxyphenyl)methyl](1,2,4-thiadiazol-5-yl)}amine]	B (B=1-10 uM)	–
Fc1cccnc1C1(CNc2nnc(-c3cccs3)s2)CCC1 [N-((1-(3-fluoropyridin-2-yl)cyclobutyl)methyl)-5-(thiophen-2-yl)-1,3,4-thiadiazol-2-amine]	–	Mean AC1.4 (Table 3): B (B=1-10 uM)
Fc1ccc(C2(CNc3nc4ccc(Cl)cc4s3)CCC2)cc1 [6-chloro-N-((1-(4-fluorophenyl)cyclobutyl)methyl) benzo[d]thiazol-2-amine]	–	Mean AC1.4 (Table 4): A (A=<1 uM)
Cc1ccc(-c2nnc(NC[C@]3(c4ncccc4F)C[C@H](F)C3)s2)s1 [N-(((trans)-3-fluoro-1-(3-fluoropyridin-2-yl)cyclobutyl)methyl)-5-(5-methylthiophen-2-yl)-1,3,4-thiadiazol-2-amine]	–	Mean AC1.4 (Table 3): B (B=1-10 uM)
CC(C)(CNc1nc(CCN2CCCCC2)ns1)c1ccc(F)cc1 [[2-(4-fluorophenyl)-2-methylpropyl][3-(2-piperidylethyl)(1,2,4-thiadiazol-5-yl)]amine]	D (D=>20 uM)	–
CC(C)(CNc1nc(-c2ccncc2)ns1)c1ccc(F)cc1 [[2-(4-fluorophenyl)-2-methylpropyl](3-(4-pyridyl)(1,2,4-thiadiazol-5-yl))amine]	B (B=1-10 uM)	–
Fc1cccnc1C1(CNc2noc(-c3ccccc3)n2)CCC1 [N-((1-(3-fluoropyridin-2-yl)cyclobutyl)methyl)-5-phenyl-1,2,4-oxadiazol-3-amine]	–	Mean AC1.4 (Table 5): D (D=>20 uM)
CC(C)(CNc1nc(-c2ccc(CO)cc2)ns1)c1ccc(F)cc1 [[4-(5-{[2-(4-fluorophenyl)-2-methylpropyl]amino}-1,2,4-thiadiazol-3-yl)phenyl]methan-1-ol]	B (B=1-10 uM)	–
